Measurements as given in patent publication US4382090A, “N-Thiazolylmethylthioalkyl-N'alkylamidines and related compounds” (Eli Lilly and Company, priority 1981, dated 1983).
Each block holds one compound with its values, some of them ahead of it.

Tests used:
[1] = cited from earlier work
[2] = cited from earlier work; remark: listed apart in the source
H2 -receptors = biological target: T1, H2 -receptors (Rattus norvegicus, UniProt P25102); assay: H2-receptor blocking activity, isolated rat uterine horn (histamine relaxation of KCl-contracted uterus); settings: for Kb: rat uterus, Schild plot, read-out: KB (dissociation constant of the antagonist)
T1 construct: from tissue; host or cells: uterine horn of estrone-treated female albino rats
Method: The following assay for H2 -receptor blocking activity was employed. Female albino rats were treated with estrone 24 hours prior to the initiation of the experiment. The rats were sacrificed and the uterine horns removed therefrom and suspended at ambient temperatures in isolated organ baths containing De Jalon's solution. After equilibration, the uterine strips are exposed to 50 millimole aqueous potassium chloride, which produces a sustained contraction. When the uterus is so contracted, histamine produces a dose-dependent H2 -receptor-mediated relaxation. A control dose-response curve to histamine is constructed on each tissue. Following thorough washout of the histamine after obtaining the control dose-response curve, each antagonist (the compounds of this invention) is added for 30 minutes at a concentration of 10^-5 molar. The uterine strips are then contracted with aqueous potassium chloride in the presence of the antagonist and a second dose-response curve to histamine obtained. In the presence of a competitive antagonist, the dose-response curve to histamine is shifted in parallel to the right with no depression of the maximum relative to the control curve. The dose ratio (DR) is calculated for each concentration of antagonist by dividing the ED50 of histamine in the presence of the competitive antagonist by the control ED50 for histamine. The dissociation constant (KB) of the antagonist is calculated from the dose-ratios by the following equation: […]

H2 -receptor [3] = settings: cited from earlier work
H2 -receptor [4] = settings: cited from earlier work; remark: listed apart in the source
[5] = Preliminary tests of duration of action

T1 sequence (P25102 whole entry): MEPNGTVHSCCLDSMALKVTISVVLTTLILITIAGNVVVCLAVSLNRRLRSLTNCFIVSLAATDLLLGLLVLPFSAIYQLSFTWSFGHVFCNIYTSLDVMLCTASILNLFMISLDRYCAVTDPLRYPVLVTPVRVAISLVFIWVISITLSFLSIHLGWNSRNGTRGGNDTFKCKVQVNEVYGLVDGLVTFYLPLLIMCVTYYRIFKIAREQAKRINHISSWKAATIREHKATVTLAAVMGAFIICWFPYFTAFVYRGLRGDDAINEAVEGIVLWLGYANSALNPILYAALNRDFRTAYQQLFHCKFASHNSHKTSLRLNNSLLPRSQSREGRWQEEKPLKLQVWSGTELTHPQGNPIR

SMILES: CN/C(=N/CCSCc1nc[nH]c1C)NC#N [cimetidine, N-cyano-N'-methyl-N"-[2-([(5-methyl-1H-imidazol-4-yl)methyl]thio)ethyl]guanidine]
Literature LD50 rat iv ([1]; iv): 106 mg/kg
Literature LD50 rat oral ([1]; oral): 5000 mg/kg
Literature LD50 mouse iv [2]: 150 mg/kg
Kb (H2 -receptors): 871 nM

affinity for the H2 -receptors relative to cimetidine (H2 -receptors; rat uterine strips, antagonist 10^-5 molar for 30 minutes): about 1.5 times
SMILES: CNC(=NC#N)NCCSCc1csc(CN(C)C)n1 [N-methyl-N'-2-(2-dimethylaminomethyl-4-thiazolylmethylthio)ethyl-N"-cyanoguanidine]

SMILES: C#CCNC(=C[N+](=O)[O-])NCCSCc1ccc(CN(C)C)o1 [1-nitro-2-(2-propynylamino)-2-(2-[(5-dimethylaminomethyl-2-furyl)methylthio]ethylamino)ethylene]
activity relative to cimetidine in a standard H2 -receptor assay (H2 -receptor [3]): 7.45 times

SMILES: CNC(=NC#N)NCCSCc1csc(NC(=N)N)n1 [2-guanidino-4-[2-(2-cyano-3-methylguanidino)ethylthiomethyl]thiazole]
activity compared with cimetidine (H2 -receptor [4]): greatly increased activity over cimetidine

Kb (H2 -receptors): 87 nM
SMILES: CNC(=C[N+](=O)[O-])NCCSCc1csc(CN(C)C)n1 [N-methyl-N'-2-(2-dimethylaminomethyl-4-thiazolylmethylthio)ethyl 2-nitro-1,1-ethenediamine]
duration of action compared with cimetidine [5]: longer duration of action
